In patent publication US7381433B1, “Compositions containing an extract of a primula denticulata and use thereof” (Johnson & Johnson Consumer Companies, Inc., priority 2007, dated 2008):

Tested on: sebocytes
Experiment: In vitro sebocyte lipogenesis assay (Nile red lipid accumulation)
Assay type: cell-based, human

Work on `CCCCCC1=CC(=O)C=C(OC)C1=O` [Primin, 2-methoxy-6-pentyl-1,4-benzoquinone] yielded an Induction of lipogenesis (Primin concentration 0.3 μg/mL) of 17.9%, an Induction of lipogenesis (Primin concentration 1.0 μg/mL) of 21.3% and an Induction of lipogenesis (Primin concentration 3.0 μg/mL) of 41.5%. The “Effect on lipogenesis in sebocytes (in words)” value (summary of Tables 1 and 2) was “has lipogenic activity”.
